The source of these data is US12291518B2, “Thyroid hormone receptor agonists and use thereof” (Eccogene Inc., priority 2020, dated 2025).

One test concerns the target T1, THR beta-LBD (Homo sapiens, UniProt P10828).
T1 construct: THR beta-LBD (the final concentration is 0.5 nM) was added to the 384-well assay plate; purchased Invitrogen PV4686
T1 sequence (P10828 217-461 limits assumed): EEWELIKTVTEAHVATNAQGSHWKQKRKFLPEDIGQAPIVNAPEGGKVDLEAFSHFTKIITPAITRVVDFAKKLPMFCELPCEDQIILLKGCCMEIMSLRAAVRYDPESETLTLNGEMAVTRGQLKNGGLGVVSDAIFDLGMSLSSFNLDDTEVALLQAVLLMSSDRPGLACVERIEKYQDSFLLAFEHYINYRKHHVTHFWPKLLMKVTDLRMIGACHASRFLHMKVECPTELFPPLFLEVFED
The experiment in a line: THR-β Coactivator Peptide Recruitment Assay (LanthaScreen TR-FRET). Format: biochemical. The following applies: TR-FRET coactivator recruitment, THR beta-LBD 0.5 nM; for EC50: read-out: THRβ EC50. In a few lines: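 GST-tagged THR beta-LBD (0.5 nM) with test compound recruits fluorescein-SRC2-2 coactivator peptide (0.1 nM), detected with Tb-anti-GST antibody (2 nM).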

For a further test, the target named is T2, THR alpha-LBD (Homo sapiens, UniProt P10827).
T2 construct: except that THR alpha-LBD of a final concentration 0.25 nM was used; purchased Invitrogen PV4687
The experiment in a line: THR-α Coactivator Peptide Recruitment Assay (LanthaScreen TR-FRET). The format is biochemical. The following applies: TR-FRET coactivator recruitment, THR alpha-LBD 0.25 nM; for EC50: read-out: THRα EC50. The essentials:
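TR-FRET coactivator recruitment with THR alpha-LBD at 0.25 nM final, Fluorescein-SRC2-2 peptide 0.1 nM and Tb-labeled anti-GST antibody 2 nM; 2 h incubation at room temperature. 520/495 nm emission ratio fitted to a four-parameter sigmoidal curve to give EC50.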

Structures are written as SMILES. Bounds are passed on as bounds.

T2 sequence (P10827 163-410 isoform P10827-2 limits assumed, other chains not shown): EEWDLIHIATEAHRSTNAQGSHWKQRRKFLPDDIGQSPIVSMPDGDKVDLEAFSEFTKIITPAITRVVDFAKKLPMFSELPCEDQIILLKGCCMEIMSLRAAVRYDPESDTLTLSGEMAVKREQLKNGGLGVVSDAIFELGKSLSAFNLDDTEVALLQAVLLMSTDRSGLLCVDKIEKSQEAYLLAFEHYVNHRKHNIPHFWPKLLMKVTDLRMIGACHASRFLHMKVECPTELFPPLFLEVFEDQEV

As to `CCS(=O)(=O)N[C@H]1CCN(S(=O)(=O)c2cc(Oc3c(Cl)cc(-n4nc(C(F)F)c(=O)[nH]c4=O)cc3Cl)ccc2O)C1` [Compound 55, (S)-N-(1-((5-(2,6-dichloro-4-(6-(difluoromethyl)-3,5-dioxo-4,5-dihydro-1,2,4-triazin-2(3H)-yl)phenoxy)-2-hydroxyphenyl)sulfonyl)pyrrolidin-3-yl)ethanesulfonamide], on THR beta-LBD, the “THRβ Emax” value is reported as “B (75~90)” and the EC50 is less than 2 nM. Also, on THR alpha-LBD, the “THRα Emax” value was “B (40~85)” and the EC50 fell in the range of 2 to 200 nM.

As to `O=C(N[C@H]1CCN(S(=O)(=O)c2cc(Oc3c(Cl)cc(-n4nc(C(F)F)c(=O)[nH]c4=O)cc3Cl)ccc2O)C1)C1CC1` [Compound 56, (S)-N-(1-((5-(2,6-dichloro-4-(6-(difluoromethyl)-3,5-dioxo-4,5-dihydro-1,2,4-triazin-2(3H)-yl)phenoxy)-2-hydroxyphenyl)sulfonyl)pyrrolidin-3-yl)cyclopropanecarboxamide], on THR beta-LBD, the “THRβ Emax” value is listed as “C (<75)” and the EC50 was less than 2 nM. Also, at THR alpha-LBD, the “THRα Emax” value was “B (40~85)” and the 50% effective concentration (EC50) was in the range of 2 to 200 nM.

Regarding `CNC(=O)N1CC(NS(=O)(=O)c2cc(Oc3c(Cl)cc(-n4nc(C(F)F)c(=O)[nH]c4=O)cc3Cl)ccc2O)C1` [Compound 57, 3-((5-(2,6-dichloro-4-(6-(difluoromethyl)-3,5-dioxo-4,5-dihydro-1,2,4-triazin-2(3H)-yl)phenoxy)-2-hydroxyphenyl)sulfonamido)-N-methylazetidine-1-carboxamide], on THR beta-LBD, the “THRβ Emax” value is reported as “C (<75)” and the half-maximal effective concentration (EC50) fell in the range of 20 to 100 nM. On THR alpha-LBD, the “THRα Emax” value was “C (<40)” and the EC50 was more than 1000 nM.

For `NC(=O)CNS(=O)(=O)c1cc(Oc2c(Cl)cc(-n3nc(C(F)F)c(=O)[nH]c3=O)cc2Cl)ccc1O` [Compound 58, 2-((5-(2,6-dichloro-4-(6-(difluoromethyl)-3,5-dioxo-4,5-dihydro-1,2,4-triazin-2 (3H)-yl)phenoxy)-2-hydroxyphenyl)sulfonamido)acetamide], at THR beta-LBD, the “THRβ Emax” value is on record as “B (75~90)” and the 50% effective concentration (EC50) was less than 2 nM. On THR alpha-LBD, the “THRα Emax” value was “A (85~110)” and the EC50 is 2 to 200 nM.

In the case of `O=C(CNS(=O)(=O)c1cc(Oc2c(Cl)cc(-n3nc(C(F)F)c(=O)[nH]c3=O)cc2Cl)ccc1O)NC1CC1` [Compound 59, N-cyclopropyl-2-((5-(2,6-dichloro-4-(6-(difluoromethyl)-3,5-dioxo-4,5-dihydro-1,2,4-triazin-2(3H)-yl)phenoxy)-2-hydroxyphenyl)sulfonamido)acetamide], at THR beta-LBD, the “THRβ Emax” value is listed as “A (90~110)” and the EC50 was 2 to 20 nM. On THR alpha-LBD, the “THRα Emax” value is on record as “B (40~85)” and the EC50 was in the range of 200 to 1000 nM.

For `CNC(=O)CNS(=O)(=O)c1cc(Oc2c(Cl)cc(-n3nc(C(F)F)c(=O)[nH]c3=O)cc2Cl)ccc1O` [Compound 60, 2-((5-(2,6-dichloro-4-(6-(difluoromethyl)-3,5-dioxo-4,5-dihydro-1,2,4-triazin-2(3H)-yl)phenoxy)-2-hydroxyphenyl)sulfonamido)-N-methylacetamide], at THR beta-LBD, the “THRβ Emax” value is on record as “B (75~90)” and the concentration for a half-maximal effect (EC50) is 2 to 20 nM. For the same molecule, on THR alpha-LBD, the “THRα Emax” value is listed as “B (40~85)” and the EC50 lay in the range of 2 to 200 nM.

For the molecule `CNC(=O)[C@H]1C[C@H](NS(=O)(=O)c2cc(Oc3c(Cl)cc(-n4nc(C(F)F)c(=O)[nH]c4=O)cc3Cl)ccc2O)C1` [Compound 61, (1r,3r)-3-((5-(2,6-dichloro-4-(6-(difluoromethyl)-3,5-dioxo-4,5-dihydro-1,2,4-triazin-2(3H)-yl)phenoxy)-2-hydroxyphenyl)sulfonamido)-N-methylcyclobutane-1-carboxamide], at THR beta-LBD, the “THRβ Emax” value is given as “B (75~90)” and the EC50 lay in the range of 2 to 20 nM. Also, on THR alpha-LBD, the “THRα Emax” value was “B (40~85)” and the EC50 was more than 1000 nM.
